Experimental data taken from publication PMC7312762, “Acetylcholinesterase Inhibition of Diversely Functionalized Quinolinones for Alzheimer’s Disease Therapy” (International Journal of Molecular Sciences, 2020).
Like-named read-outs stand apart in the source and are kept apart here.

Assays:
Assay type in all cases: biochemical
[1] = biological target: T1, human recombinant acetylcholinesterase (hrAChE) (Homo sapiens, UniProt P22303); experiment: hrAChE inhibition, Ellman method (screening and IC50); settings: for hrAChE inhibition (screening, in words): screening at 1 and 10 µM; for IC50: mean ± standard error of the mean, triplicate determinations; for inhibition at 10 µM: read-out: hrAChE inhibition
T1 construct: made in house; host or cells: Hek293 derivatives (transient transfection, pcDNA3.4), collected from culture supernatant
Experimental: (§1) The hrAChE and hrBuChE were prepared as recombinant proteins at the University of Hradec Kralove. For their production, the mammalian expression system was used. Briefly, the DNA sequence encoding human AChE and BuChE was obtained from UniProtKB Server (www.uniprot.org, accession numbers: P22303 and P06276) and de novo synthesized as GeneArt Strings DNA fragments by GeneArt Gene Synthesis Service (Thermo Fisher Scientific, Pardubice, Czech Republic). The DNA fragments were PCR-amplified using gene-specific primers, adding the DNA sequence for C-terminal 6× His-tag. The amplicons were inserted into the mammalian pcDNA3.4 vector by TOPO cloning technology, and the final DNA constructs were verified by Sanger sequencing (ABI PRISM 3130xl). For protein expression, the DNA constructs were transiently transfected into Hek293 derivatives. Recombinant proteins were collected from culture supernatant 6 days later and stored at −80 °C for further purification.
(§2) The hrAChE and hrBuChE were purified using a NGC Medium-Pressure Chromatography System (Bio-Rad, USA). The total volume of 6–8 mL of medium containing secreted protein was desalted using 5 mL HiTrap Desalting column (GE Healthcare, Prague, Czech Republic) equilibrated with buffer A (20 mM sodium phosphate buffer, 150 mM NaCl, 15 mM imidazole, and 20% glycerol; pH 7.4). Acquired supernatant was loaded onto a 1 mL HisTrap FF column (GE Healthcare, Prague, Czech Republic) equilibrated with buffer A. Captured proteins were eluted with buffer B (20 mM sodium phosphate buffer, 150 mM NaCl, 500 mM imidazole, and 20% glycerol; pH 7.4). Imidazole was subsequently removed by repeated centrifugation in Amicon Ultra-4 (Ultracel-10K) tube (Merck Millipore). Protein concentration was determined by linearized Bradford method adapted for 96-well plate.
(§3) The catalytic activity of enzymes was determined by standard Ellman method adapted for 96-well plates. […]. The mixture was pre-incubated at 37 °C for 15 min, and subsequently substrate acetylthiocholine iodide (ATChI) or butyrylthiocholine iodide (BuTChI) was added to the final concentration of 1000 µM. The final volume of reaction was 100 µL. The product formed during the reaction 5-thio-2-nitrobenzoic acid (TNB) was determined by following its absorbance at 436 nm. The catalytic activity was evaluated as amount of product (%) formed by enzyme after 10 min of incubation at 37 °C. IC50 values of individual compounds were determined by non-linear regression using GraphPad Prism 7.

[2] = biological target: T2, human recombinant butyrylcholinesterase (hrBuChE) (Homo sapiens, UniProt P06276); experiment: hrBuChE inhibition, Ellman method (screening and IC50); settings: for inhibition at 10 µM: at 10 µM concentration; for IC50: mean ± standard error of the mean, triplicate determinations
T2 construct: made in house; host or cells: Hek293 derivatives (transient transfection, pcDNA3.4), collected from culture supernatant
Experimental: as §1, §2, §3

[3] = biological target: T3, hrAChE (Homo sapiens, UniProt P22303); experiment: Inhibition kinetics of hrAChE (Lineweaver-Burk)
T3 construct: made in house; host or cells: Hek293 derivatives (transient transfection, pcDNA3.4), collected from culture supernatant
Experimental: Compound with the highest inhibition potential against hrAChE was further analysed regarding its inhibition kinetics parameters (inhibition mechanism and inhibitory constant). […]. Inhibition mechanism and kinetic constant were determined by non-linear regression and double reciprocal method by Lineweaver-Burk using GraphPad Prism 7.

T2 sequence (P06276 29-602): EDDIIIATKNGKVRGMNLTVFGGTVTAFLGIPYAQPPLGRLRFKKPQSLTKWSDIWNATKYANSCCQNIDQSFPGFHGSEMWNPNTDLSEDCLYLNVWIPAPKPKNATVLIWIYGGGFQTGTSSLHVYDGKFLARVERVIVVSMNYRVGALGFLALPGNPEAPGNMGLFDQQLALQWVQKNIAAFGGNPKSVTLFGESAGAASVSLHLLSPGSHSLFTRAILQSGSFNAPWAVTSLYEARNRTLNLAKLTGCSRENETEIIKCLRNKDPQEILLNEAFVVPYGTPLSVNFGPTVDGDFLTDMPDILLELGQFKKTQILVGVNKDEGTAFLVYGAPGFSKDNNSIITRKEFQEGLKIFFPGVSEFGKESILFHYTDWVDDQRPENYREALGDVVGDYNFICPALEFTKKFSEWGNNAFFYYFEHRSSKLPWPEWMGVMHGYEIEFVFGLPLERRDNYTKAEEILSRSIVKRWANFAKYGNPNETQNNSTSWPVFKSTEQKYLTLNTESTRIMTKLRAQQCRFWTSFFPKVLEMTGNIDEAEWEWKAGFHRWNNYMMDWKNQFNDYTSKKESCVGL
T1 sequence (P22303 32-614): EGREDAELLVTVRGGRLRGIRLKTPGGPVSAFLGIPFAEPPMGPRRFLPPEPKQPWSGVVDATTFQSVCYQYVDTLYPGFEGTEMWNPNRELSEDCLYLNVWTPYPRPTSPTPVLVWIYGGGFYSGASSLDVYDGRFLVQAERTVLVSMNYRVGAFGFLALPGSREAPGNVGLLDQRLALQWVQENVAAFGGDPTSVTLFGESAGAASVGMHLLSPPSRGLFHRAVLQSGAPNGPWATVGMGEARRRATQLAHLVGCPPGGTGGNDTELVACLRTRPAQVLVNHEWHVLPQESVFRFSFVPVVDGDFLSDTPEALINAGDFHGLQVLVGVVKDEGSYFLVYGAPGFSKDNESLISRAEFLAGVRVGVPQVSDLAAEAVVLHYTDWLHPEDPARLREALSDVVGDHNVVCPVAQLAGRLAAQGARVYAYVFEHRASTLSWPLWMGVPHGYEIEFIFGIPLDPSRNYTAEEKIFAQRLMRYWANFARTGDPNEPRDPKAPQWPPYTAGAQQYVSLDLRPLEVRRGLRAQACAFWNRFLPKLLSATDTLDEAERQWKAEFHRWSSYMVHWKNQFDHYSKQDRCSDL
T3 sequence (P22303 32-614): as above

| SMILES | hrAChE inhibition (screening, in words) [1] | inhibition at 10 µM [2] | IC50 [2] | Selectivity Index IC50 (hrBuChE)/IC50 (hrAChE) [1] | IC50 [1] | inhibition at 10 µM [1] | type of hrAChE inhibition ([3]; kinetic experiments) | Ki ([3]; non-competitive inhibition, ATChI 25-2000 µM) | inhibition at 10 µM ([1]; at 10 µM concentration) |
| --- | --- | --- | --- | --- | --- | --- | --- | --- | --- |
| CN1CCN(CCCCOc2ccc3c(c2)NC(=O)CC3)CC1 [DQN3, 7-[4-(4-Methylpiperazin-1-yl)butoxy]-3,4-dihydroquinolin-2(1H)-one] | low inhibition percentage |  |  |  |  |  |  |  |  |
| CC(C)N1CCN(CCCCOc2ccc3c(c2)NC(=O)CC3)CC1 [DQN7, 7-[4-(4-Isopropylpiperazin-1-yl)butoxy]-3,4-dihydroquinolin-2(1H)-one] |  | 45 to 65% | 16700 ± 460 nM | 11 | 1580 ± 150 nM | 88 to 95% |  |  |  |
| CN1CCN(CCCCOc2ccc3ccc(=O)[nH]c3c2)CC1 [QN4, 7-[4-(4-Methylpiperazin-1-yl)butoxy]quinolin-2(1H)-one] | low inhibition percentage |  |  |  |  |  |  |  |  |
| CN1CCN(CCCCCOc2ccc3ccc(=O)[nH]c3c2)CC1 [QN5, 7-[5-(4-Methylpiperazin-1-yl)pentyloxy]quinolin-2(1H)-one] | low inhibition percentage |  |  |  |  |  |  |  |  |
| CC(C)N1CCN(CCCCOc2ccc3ccc(=O)[nH]c3c2)CC1 [QN8, 7-[4-(4-Isopropylpiperazin-1-yl)butoxy]quinolin-2(1H)-one] |  | 45 to 65% | 12700 ± 450 nM | 44 | 290 ± 20 nM |  | non-competitive | 79 nM | 88 to 95% |
| CC(C)N1CCN(CCCCCOc2ccc3ccc(=O)[nH]c3c2)CC1 [QN9, 7-[5-(4-Isopropylpiperazin-1-yl)pentyloxy]quinolin-2(1H)-one] |  | 45 to 65% | 6700 ± 320 nM | 7 | 960 ± 40 nM |  |  |  | 88 to 95% |
